Test results published in patent US8993756B2 (Merck Sharp & Dohme Corp., priority 2011, dated 2015).

Columns and labels:
[1] = biological target: JAK2 (Homo sapiens (Human), UniProt O60674); assay: Jak Biochemical HTRF Assay (JAK2); conditions: recombinant GST-tagged catalytic domain, [ATP] 8.5 μM
[2] = biological target: JAK3 (Homo sapiens (Human), UniProt P52333); assay: Jak Biochemical HTRF Assay (JAK3); conditions: recombinant GST-tagged catalytic domain, [ATP] 2.9 μM
Sequence of JAK3 (P52333 822-1111): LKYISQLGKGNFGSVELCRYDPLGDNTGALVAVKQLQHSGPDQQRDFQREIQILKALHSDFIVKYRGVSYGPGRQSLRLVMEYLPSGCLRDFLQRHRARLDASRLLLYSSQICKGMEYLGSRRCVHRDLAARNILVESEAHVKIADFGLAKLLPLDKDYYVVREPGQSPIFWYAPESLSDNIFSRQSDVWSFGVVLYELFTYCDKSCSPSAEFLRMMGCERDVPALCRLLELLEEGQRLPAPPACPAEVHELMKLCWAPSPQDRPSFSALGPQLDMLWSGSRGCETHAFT

Sequence of JAK2 (O60674 849-1124): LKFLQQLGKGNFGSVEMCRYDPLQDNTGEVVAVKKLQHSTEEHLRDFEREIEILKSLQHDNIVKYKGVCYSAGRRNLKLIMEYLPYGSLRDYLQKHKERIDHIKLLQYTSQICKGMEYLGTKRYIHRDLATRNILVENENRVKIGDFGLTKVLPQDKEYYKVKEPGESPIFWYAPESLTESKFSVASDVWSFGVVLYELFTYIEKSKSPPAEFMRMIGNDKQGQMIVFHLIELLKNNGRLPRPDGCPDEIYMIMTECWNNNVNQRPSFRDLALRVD

IC50 [1] [nM] | IC50 ([2]; given as range class) [nM] | IC50 ([1]; given as range class) [nM] | IC50 [2] [nM] | SMILES
> 1500 | < 10 | – | – | C=C(CNC(C)=O)C(=O)Nc1cccc(-c2ncnc3[nH]cc(C(=O)OCC)c23)c1 [Example 13-3, ethyl 4-(3-(2-(acetamidomethyl)acrylamido)phenyl)-7H-pyrrolo[2,3-d]pyrimidine-5-carboxylate]
– | 10 to 500 | > 500 | – | CCOC(=O)c1c[nH]c2ncnc(-c3cccc(Nc4nc(C#N)ns4)c3)c12 [Example 6-4, ethyl 4-{3-[(3-cyano-1,2,4-thiadiazol-5-yl)amino]phenyl}-7H-pyrrolo[2,3-d]pyrimidine-5-carboxylate]
> 1500 | – | – | 5 | C=C(C)C(=O)Nc1cccc(-c2ncnc3[nH]cc(C4=CCOCC4)c23)c1 [Example 21-5, N-(3-(5-(3,6-dihydro-2H-pyran-4-yl)-7H-pyrrolo[2,3-d]pyrimidin-4-yl)phenyl)methacrylamide]
– | 10 to 500 | 10 to 500 | – | CCOC(=O)c1c[nH]c2ncnc(-c3cccc(Nc4ncnc(C#N)n4)c3)c12 [Example 6-3, ethyl 4-{3-[(4-cyano-1,3,5-triazin-2-yl)amino]phenyl}-7H-pyrrolo[2,3-d]pyrimidine-5-carboxylate]
> 1480 | – | – | 0.15 | C=C(C)C(=O)Nc1cccc(-c2ncnc3[nH]cc(C(=O)OCC)c23)c1 [Example 4-1, Ethyl-4-{3-[(2-methylacryloyl)amino]phenyl}-7H-pyrrolo[2,3-d]pyrimidine-5-carboxylate]
– | 10 to 500 | > 500 | – | C=C(C)S(=O)(=O)Nc1cccc(-c2ncnc3[nH]cc(C(=O)OCC)c23)c1 [Example 10-3, ethyl 4-(3-{[(1-methylethenyl)sulfonyl]amino}phenyl)-7H-pyrrolo[2,3-d]pyrimidine-5-carboxylate]
> 1500 | – | – | 10.3 | C=C(C)C(=O)Nc1cccc(-c2ncnc3[nH]cc(-c4cnc(C)s4)c23)c1 [Example 21-6, N-(3-(5-(2-methylthiazol-5-yl)-7H-pyrrolo[2,3-d]pyrimidin-4-yl)phenyl)methacrylamide]
892 | – | – | 0.043 | C=C(Br)C(=O)Nc1cccc(-c2ncnc3[nH]cc(C(=O)OCC)c23)c1 [Example 5-5, ethyl 4-{3-[(2-bromoacryloyl)amino]phenyl}-7H-pyrrolo[2,3-d]pyrimidine-5-carboxylate]
– | 10 to 500 | > 500 | – | CCOC(=O)c1c[nH]c2ncnc(-c3cccc(NC(=O)C=C4CCCC4)c3)c12 [Example 5-37, ethyl 4-{3-[(cyclopentylideneacetyl)amino]phenyl}-7H-pyrrolo[2,3-d]pyrimidine-5-carboxylate]
– | 10 to 500 | > 500 | – | CCOC(=O)c1c[nH]c2ncnc(-c3cccc(NC(=O)/C=C/c4ccoc4)c3)c12 [Example 5-22, ethyl 4-(3-{[(2E)-3-furan-3-ylprop-2-enoyl]amino}phenyl)-7H-pyrrolo[2,3-d]pyrimidine-5-carboxylate]
> 1500 | – | – | 2 | C=C(C)C(=O)Nc1cccc(-c2ncnc3[nH]cc(C(=O)OC)c23)c1 [Example 11-2, methyl 4-{3-[(2-methylacryloyl)amino]phenyl}-7H-pyrrolo[2,3-d]pyrimidine-5-carboxylate]
– | 10 to 500 | > 500 | – | C=C(C)C(=O)Nc1ccc(C#N)c(-c2ncnc3[nH]cc(C(=O)OCC)c23)c1 [Example 4-22, ethyl 4-{2-cyano-5-[(2-methylacryloyl)amino]phenyl}-7H-pyrrolo[2,3-d]pyrimidine-5-carboxylate]
– | 10 to 500 | > 500 | – | c1ccc(COc2cccc(-c3c[nH]c4ncnc(-c5ccccc5)c34)c2)cc1 [Example 32-5, 5-[3-(benzyloxy)phenyl]-4-phenyl-7H-pyrrolo[2,3-d]pyrimidine]
> 1500 | – | – | 0.037 | C=CS(=O)(=O)Nc1cccc(-c2ncnc3[nH]cc(C(=O)OCC)c23)c1 [Example 10-1, Ethyl 4-{3-[(ethenylsulfonyl)amino]phenyl}-7H-pyrrolo[2,3-d]pyrimidine-5-carboxylate]
> 1500 | – | – | 0.19 | C=C(C)C(=O)Nc1cc(C)cc(-c2ncnc3[nH]cc(C(=O)OCC)c23)c1 [Example 4-26, ethyl 4-{3-methyl-5-[(2-methylacryloyl)amino]phenyl}-7H-pyrrolo[2,3-d]pyrimidine-5-carboxylate]
> 1500 | – | – | 0.34 | C=C(C)C(=O)n1ccc2ccc(-c3ncnc4[nH]cc(C(=O)OCC)c34)cc21 [Example 4-23, ethyl 4-[1-(2-methylacryloyl)-1H-indol-6-yl]-7H-pyrrolo[2,3-d]pyrimidine-5-carboxylate]
> 1500 | – | – | 0.072 | CC#CC(=O)Nc1cccc(-c2ncnc3[nH]cc(C(=O)OCC)c23)c1 [Example 5-3, ethyl 4-[3-(but-2-ynoylamino)phenyl]-7H-pyrrolo[2,3-d]pyrimidine-5-carboxylate]
> 1500 | – | – | 0.02 | C=C(CO)C(=O)Nc1cccc(-c2ncnc3[nH]cc(C(=O)OCC)c23)c1 [Example 15-2, Ethyl-4-(3-{[2-(hydroxymethyl)acryloyl]amino}phenyl)-7H-pyrrolo[2,3-d]pyrimidine-5-carboxylate]
– | 10 to 500 | 10 to 500 | – | CCOC(=O)c1c[nH]c2ncnc(-c3cccc(NC(=O)NC#N)c3)c12 [Example 9-2, ethyl 4-(3-(3-cyanoureido)phenyl)-7H-pyrrolo[2,3-d]pyrimidine-5-carboxylate]
– | 10 to 500 | > 500 | – | CC/C=C/C(=O)Nc1cccc(-c2ncnc3[nH]cc(C(=O)OCC)c23)c1 [Example 5-33, ethyl 4-{3-[(2E)-pent-2-enoylamino]phenyl}-7H-pyrrolo[2,3-d]pyrimidine-5-carboxylate]
452 | – | – | 6.6 | CCOC(=O)c1c[nH]c2ncnc(-c3cccc(NC(=O)/C=C/c4ccccn4)c3)c12 [Example 5-16, ethyl 4-(3-{[(2E)-3-pyridin-2-ylprop-2-enoyl]amino}phenyl)-7H-pyrrolo[2,3-d]pyrimidine-5-carboxylate]
> 1500 | – | – | 2.1 | CCOC(=O)c1c[nH]c2ncnc(-c3cccc(NC(=O)/C=C/COC)c3)c12 [Example 5-8, ethyl 4-(3-{[(2E)-4-methoxybut-2-enoyl]amino}phenyl)-7H-pyrrolo[2,3-d]pyrimidine-5-carboxylate]

Continued, molecule first:

SMILES | IC50 [1] [nM] | IC50 ([2]; given as range class) [nM] | IC50 ([1]; given as range class) [nM] | IC50 [2] [nM]
CCOC(=O)c1c[nH]c2ncnc(-c3ccccc3Cl)c12 [Example 1-43, ethyl 4-(2-chlorophenyl)-7H-pyrrolo[2,3-d]pyrimidine-5-carboxylate] | – | 10 to 500 | > 500 | –
CCOC(=O)c1c[nH]c2ncnc(-c3ccc(Cl)cc3)c12 [Example 1-2, Ethyl 4-(4-chlorophenyl)-7H-pyrrolo[2,3-d]pyrimidine-5-carboxylate] | – | 10 to 500 | 10 to 500 | –
CCOC(=O)c1c[nH]c2ncnc(-c3ccc4cn[nH]c4c3)c12 [Example 1-76, ethyl 4-(1H-indazol-6-yl)-7H-pyrrolo[2,3-d]pyrimidine-5-carboxylate] | – | 10 to 500 | 10 to 500 | –
CCOC(=O)c1c[nH]c2ncnc(-c3ccc4nnn(C)c4c3)c12 [Example 1-67, ethyl 4-(1-methyl-1H-benzotriazol-6-yl)-7H-pyrrolo[2,3-d]pyrimidine-5-carboxylate] | – | 10 to 500 | > 500 | –
CCOC(=O)c1c[nH]c2ncnc(-c3ccn[nH]3)c12 [Example 1-81, ethyl 4-(1H-pyrazol-5-yl)-7H-pyrrolo[2,3-d]pyrimidine-5-carboxylate] | – | 10 to 500 | > 500 | –
CCOC(=O)c1c[nH]c2ncnc(-c3cncc(CO)c3)c12 [Example 1-106, ethyl 4-[5-(hydroxymethyl)pyridin-3-yl]-7H-pyrrolo[2,3-d]pyrimidine-5-carboxylate] | – | 10 to 500 | > 500 | –
CCOC(=O)c1c[nH]c2ncnc(-c3cccc(C#N)c3)c12 [Example 1-6, ethyl 4-(3-cyanophenyl)-7H-pyrrolo[2,3-d]pyrimidine-5-carboxylate] | – | 10 to 500 | 10 to 500 | –
CCOC(=O)c1c[nH]c2ncnc(-c3ccc(CO)nc3)c12 [Example 1-58, ethyl 4-[6-(hydroxymethyl)pyridin-3-yl]-7H-pyrrolo[2,3-d]pyrimidine-5-carboxylate] | – | 10 to 500 | > 500 | –
CCOC(=O)c1c[nH]c2ncnc(-c3ccc(N(C)C)cc3)c12 [Example 1-47, ethyl 4-[4-(dimethylamino)phenyl]-7H-pyrrolo[2,3-d]pyrimidine-5-carboxylate] | 90 | – | – | 3.3
CCOC(=O)c1c[nH]c2ncnc(-c3ccc4cn(C)nc4c3)c12 [Example 1-5, ethyl 4-(2-methyl-2H-indazol-6-yl)-7H-pyrrolo[2,3-d]pyrimidine-5-carboxylate] | 273 | – | – | 7.2
CCOC(=O)c1c[nH]c2ncnc(-c3ccc(C)cc3)c12 [Example 1-37, ethyl 4-(4-methylphenyl)-7H-pyrrolo[2,3-d]pyrimidine-5-carboxylate] | – | 10 to 500 | 10 to 500 | –
CCOC(=O)c1c[nH]c2ncnc(-c3cnc4[nH]ccc4c3)c12 [Example 1-84, ethyl 4-(1H-pyrrolo[2,3-b]pyridin-5-yl)-7H-pyrrolo[2,3-d]pyrimidine-5-carboxylate] | – | 10 to 500 | 10 to 500 | –
CCOC(=O)c1c[nH]c2ncnc(-c3ccc4sc(C)nc4c3)c12 [Example 1-25, ethyl 4-(2-methyl-1,3-benzothiazol-5-yl)-7H-pyrrolo[2,3-d]pyrimidine-5-carboxylate] | – | 10 to 500 | 10 to 500 | –
CCOC(=O)c1c[nH]c2ncnc(-c3ccc(OC)cc3)c12 [Example 1-15, ethyl 4-(4-methoxyphenyl)-7H-pyrrolo[2,3-d]pyrimidine-5-carboxylate] | 134 | – | – | 5.7
CCOC(=O)c1c[nH]c2ncnc(-c3ccnc(CO)c3)c12 [Example 1-60, ethyl 4-[2-(hydroxymethyl)pyridin-4-yl]-7H-pyrrolo[2,3-d]pyrimidine-5-carboxylate] | – | 10 to 500 | > 500 | –
